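Each compound was tested at five concentrations against cells in 96-well plates for 48 hours. TGI marks complete inhibition of growth.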
Experiments:
Assay in all cases: growth of human tumour cells (NCI), 48 h
MALME-3M melanoma = system: MALME-3M melanoma
PC-3 prostate = system: PC-3 prostate
MCF7 breast = system: MCF7 breast
MDA-MB-231 breast = system: MDA-MB-231 breast
SR leukemia = system: SR leukemia
SF-268 CNS = system: SF-268 CNS
UACC-257 melanoma = system: UACC-257 melanoma
UO-31 renal = system: UO-31 renal
NCI-H23 lung = system: NCI-H23 lung
MOLT-4 leukemia = system: MOLT-4 leukemia

With `COc1ccc(C2NC(=O)Nc3c2c(=O)oc2c3ccc3ccccc32)cc1` (centres undefined) the TGI (MALME-3M melanoma) was > 100 µM, the TGI (PC-3 prostate) was > 100 µM and the TGI (MCF7 breast) was > 100 µM. For the same compound, the TGI (MDA-MB-231 breast) was > 100 µM, the TGI (SR leukemia) was > 100 µM and the TGI (SF-268 CNS) was > 100 µM. For the same compound, the TGI (UACC-257 melanoma) was > 100 µM, the TGI (UO-31 renal) was > 100 µM and the TGI (NCI-H23 lung) was > 100 µM. For the same compound, the TGI (MOLT-4 leukemia) was > 100 µM.

In the case of `O=C1C(=Cc2ccccc2[N+](=O)[O-])N=C(c2ccccc2)N1n1c(-c2ccccc2)nc2ccccc2c1=O`, the TGI (MALME-3M melanoma) is reported as 91.7 µM, the TGI (PC-3 prostate) is reported as 80.6 µM and the TGI (MCF7 breast) is reported as 52.4 µM. For the same compound, the TGI (MDA-MB-231 breast) was > 100 µM, the TGI (SR leukemia) was > 100 µM and the TGI (SF-268 CNS) was > 100 µM. For the same compound, the TGI (UACC-257 melanoma) was 90.7 µM, the TGI (UO-31 renal) was > 100 µM and the TGI (NCI-H23 lung) was 65 µM. It also gave a TGI (MOLT-4 leukemia) of 70.4 µM.

With `Cc1cccc(C(O)c2cccnc2)c1O` (centres undefined) the TGI (MALME-3M melanoma) was > 100 µM, the TGI (PC-3 prostate) was > 100 µM and the TGI (MCF7 breast) was > 100 µM. For the same compound, the TGI (MDA-MB-231 breast) was > 100 µM, the TGI (SR leukemia) was > 100 µM and the TGI (SF-268 CNS) was > 100 µM. For the same compound, the TGI (UACC-257 melanoma) was > 100 µM, the TGI (UO-31 renal) was > 100 µM and the TGI (NCI-H23 lung) was > 100 µM. The TGI (MOLT-4 leukemia) was > 100 µM.

With `O=S(=O)(O)c1ccc(Nc2ccnc3cc(Cl)ccc23)cc1` the TGI (MALME-3M melanoma) was > 100 µM, the TGI (PC-3 prostate) was > 100 µM and the TGI (MCF7 breast) was > 100 µM. The TGI (MDA-MB-231 breast) was > 100 µM, the TGI (SR leukemia) was > 100 µM and the TGI (SF-268 CNS) was > 100 µM. The TGI (UACC-257 melanoma) was > 100 µM, the TGI (UO-31 renal) was > 100 µM and the TGI (NCI-H23 lung) was > 100 µM. For the same compound, the TGI (MOLT-4 leukemia) was > 100 µM.

With `COc1cc2c(cc1O)CC[C@@H]1C2CC[C@@]2(C)C1CC[C@@H]2O` (some centres undefined) the TGI (MALME-3M melanoma) was > 100 µM, the TGI (PC-3 prostate) was > 100 µM and the TGI (MCF7 breast) was > 100 µM. For the same compound, the TGI (MDA-MB-231 breast) was > 87.1 µM, the TGI (SR leukemia) was 5.44 µM and the TGI (SF-268 CNS) was > 100 µM. The TGI (UACC-257 melanoma) was > 100 µM, the TGI (UO-31 renal) was > 94.7 µM and the TGI (NCI-H23 lung) was 51.7 µM. It also gave a TGI (MOLT-4 leukemia) of 32.1 µM.

For `C[C@@H]1OCC(O)C([C@H]2OC(c3ccccc3)=N[C@H]2CO)O1` (some centres undefined), the TGI (MALME-3M melanoma) was > 100 µM, the TGI (PC-3 prostate) was > 100 µM and the TGI (MCF7 breast) was > 100 µM. The TGI (MDA-MB-231 breast) was > 100 µM, the TGI (SR leukemia) was > 100 µM and the TGI (SF-268 CNS) was > 100 µM. The TGI (UACC-257 melanoma) was > 100 µM, the TGI (UO-31 renal) was > 100 µM and the TGI (NCI-H23 lung) was > 100 µM. For the same compound, the TGI (MOLT-4 leukemia) was > 100 µM.

For `Cc1cc(C)c2c(c1)CC1(Cc3c(C)cc(C)cc3C1=O)C2=O` (centres undefined), the TGI (MALME-3M melanoma) was > 100 µM, the TGI (PC-3 prostate) was > 100 µM and the TGI (MCF7 breast) was > 100 µM. For the same compound, the TGI (MDA-MB-231 breast) was > 100 µM, the TGI (SR leukemia) was > 100 µM and the TGI (SF-268 CNS) was > 100 µM. The TGI (UACC-257 melanoma) was > 100 µM, the TGI (UO-31 renal) was > 100 µM and the TGI (MOLT-4 leukemia) was > 100 µM.

In the case of `COc1cc(-c2[o+]c3cc(O)cc(OC4OC(CO)C(O)C(O)C4O)c3cc2OC2OC(CO)C(O)C(O)C2O)cc(OC)c1O` (centres undefined), the TGI (MALME-3M melanoma) is reported as > 100 µM, the TGI (PC-3 prostate) is reported as > 100 µM and the TGI (MCF7 breast) is reported as > 100 µM. For the same compound, the TGI (MDA-MB-231 breast) was > 100 µM, the TGI (SR leukemia) was > 100 µM and the TGI (SF-268 CNS) was > 100 µM. For the same compound, the TGI (UACC-257 melanoma) was > 100 µM, the TGI (UO-31 renal) was > 100 µM and the TGI (NCI-H23 lung) was > 100 µM. For the same compound, the TGI (MOLT-4 leukemia) was > 100 µM.

With `COC(=O)/C=C\C(C#N)(C#N)N=Cc1ccsc1` the TGI (MALME-3M melanoma) was 3.5 µM, the TGI (PC-3 prostate) was 25.4 µM and the TGI (MCF7 breast) was 5.05 µM. For the same compound, the TGI (MDA-MB-231 breast) was 12.2 µM, the TGI (SR leukemia) was 0.645 µM and the TGI (SF-268 CNS) was 46.2 µM. It also gave a TGI (UACC-257 melanoma) of 9.35 µM, a TGI (UO-31 renal) of 8.85 µM and a TGI (NCI-H23 lung) of 22.1 µM. For the same compound, the TGI (MOLT-4 leukemia) was 5 µM.

With `O=C(Nc1nc(C23CC4CC(CC(C4)C2)C3)cs1)c1cc2cc([N+](=O)[O-])ccc2oc1=O` the TGI (MALME-3M melanoma) was > 100 µM, the TGI (PC-3 prostate) was > 100 µM and the TGI (MCF7 breast) was > 100 µM. For the same compound, the TGI (MDA-MB-231 breast) was > 100 µM, the TGI (SR leukemia) was > 100 µM and the TGI (SF-268 CNS) was > 100 µM. For the same compound, the TGI (UACC-257 melanoma) was > 100 µM, the TGI (UO-31 renal) was > 100 µM and the TGI (NCI-H23 lung) was > 100 µM. The TGI (MOLT-4 leukemia) was > 100 µM.

With `O=C(NCc1ccccc1)c1c(O)c2ccccc2[nH]c1=O` the TGI (MALME-3M melanoma) was > 100 µM, the TGI (PC-3 prostate) was > 100 µM and the TGI (MCF7 breast) was > 100 µM. For the same compound, the TGI (MDA-MB-231 breast) was > 100 µM, the TGI (SR leukemia) was > 100 µM and the TGI (SF-268 CNS) was > 100 µM. For the same compound, the TGI (UACC-257 melanoma) was > 100 µM, the TGI (UO-31 renal) was > 100 µM and the TGI (NCI-H23 lung) was > 100 µM. For the same compound, the TGI (MOLT-4 leukemia) was > 100 µM.

For `CSc1ccccc1P(CCP(c1ccccc1SC)c1ccccc1SC)c1ccccc1SC`, the TGI (MALME-3M melanoma) was > 100 µM, the TGI (PC-3 prostate) was > 100 µM and the TGI (MCF7 breast) was > 100 µM. For the same compound, the TGI (MDA-MB-231 breast) was > 100 µM, the TGI (SR leukemia) was > 42.6 µM and the TGI (SF-268 CNS) was > 100 µM. For the same compound, the TGI (UACC-257 melanoma) was > 89.5 µM, the TGI (UO-31 renal) was > 90.3 µM and the TGI (NCI-H23 lung) was > 38.1 µM. For the same compound, the TGI (MOLT-4 leukemia) was > 100 µM.

For `Cn1c(=O)c2sc3cc4c(cc3c2c2ccccc21)sc1c(=O)n(C)c2ccccc2c14`, the TGI (MALME-3M melanoma) was > 100 µM, the TGI (PC-3 prostate) was > 100 µM and the TGI (MCF7 breast) was > 100 µM. For the same compound, the TGI (MDA-MB-231 breast) was 36.8 µM, the TGI (SR leukemia) was > 100 µM and the TGI (SF-268 CNS) was > 100 µM. The TGI (UACC-257 melanoma) was > 100 µM, the TGI (UO-31 renal) was > 100 µM and the TGI (NCI-H23 lung) was > 100 µM. The TGI (MOLT-4 leukemia) was > 100 µM.

In the case of `Cc1nnc(CC#N)n1NC(=O)CC#N`, the TGI (MALME-3M melanoma) is reported as > 100 µM, the TGI (PC-3 prostate) is reported as > 100 µM and the TGI (MCF7 breast) is reported as > 100 µM. For the same compound, the TGI (MDA-MB-231 breast) was > 100 µM, the TGI (SR leukemia) was > 100 µM and the TGI (SF-268 CNS) was > 100 µM. The TGI (UACC-257 melanoma) was > 100 µM, the TGI (UO-31 renal) was > 100 µM and the TGI (NCI-H23 lung) was > 100 µM. For the same compound, the TGI (MOLT-4 leukemia) was > 100 µM.

In the case of `COC(=O)C[C@H](CCSC)NC(=O)C[C@H](CCSC)NC(=O)C[C@H](CCSC)NC(=O)OC(C)(C)C`, the TGI (MALME-3M melanoma) is reported as > 100 µM, the TGI (PC-3 prostate) is reported as > 100 µM and the TGI (MCF7 breast) is reported as > 100 µM. For the same compound, the TGI (MDA-MB-231 breast) was > 100 µM, the TGI (SR leukemia) was > 100 µM and the TGI (SF-268 CNS) was 59.2 µM. The TGI (UACC-257 melanoma) was > 100 µM, the TGI (UO-31 renal) was > 100 µM and the TGI (NCI-H23 lung) was > 100 µM. For the same compound, the TGI (MOLT-4 leukemia) was > 100 µM.

`Nc1ccc(-c2nc3ccccc3s2)cc1` gave a TGI (MALME-3M melanoma) of 45 µM, a TGI (PC-3 prostate) of 29.2 µM and a TGI (MCF7 breast) of 39.4 µM. It also gave a TGI (MDA-MB-231 breast) of 31.9 µM, a TGI (SR leukemia) of 62.2 µM and a TGI (SF-268 CNS) of 31.4 µM. It also gave a TGI (UACC-257 melanoma) of 49.7 µM, a TGI (UO-31 renal) of 28.9 µM and a TGI (NCI-H23 lung) of 43.1 µM. It also gave a TGI (MOLT-4 leukemia) of 70.3 µM.
